Assay results from the supplement of paper PMC10307832.

Columns and labels:
Test in all cases: relative viability (nuclei count vs DMSO), 5 days (fraction); higher = more cells survive
[1] = compound: CC1=CC(=NN1)NC2=CC(=NC(=N2)/C=C/C3=CC=CC=C3)N4CCN(CC4)C + CC(=O)c1c(C)c2cnc(Nc3ccc(N4CCNCC4)cn3)nc2n(C2CCCC2)c1=O [Palbociclib] (partner 0.5 µM)
Outline: (§1)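 Lung cancer cell lines were pin-tool dosed in 1536-well plates on the day after seeding, with either a lone drug or a fixed anchor-drug dose plus five library-drug doses (not always all listed) in √10 steps. Nuclei were counted on 4× images after 5 days. Relative viability is the ratio of treated-well to vehicle-well nuclei counts, with each value a median of duplicate plates.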

Obatoclax + Pemetrexed = compound: COC1=CC(c2cc3ccccc3[nH]2)=N/C1=C\c1[nH]c(C)cc1C [Obatoclax] + Nc1nc2[nH]cc(CCc3ccc(C(=O)N[C@@H](CCC(=O)O)C(=O)O)cc3)c2c(=O)[nH]1 [Pemetrexed] (partner 0.2 µM)
Outline: as §1

[2] = compound: CC1=CC(=NN1)NC2=CC(=NC(=N2)/C=C/C3=CC=CC=C3)N4CCN(CC4)C + NC(=O)Nc1cc(-c2cccc(F)c2)sc1C(=O)N[C@H]1CCCNC1 [AZD7762] (partner 0.2 µM)
Outline: as §1

Bortezomib + Olaparib = compound: CC(C)C[C@H](NC(=O)[C@H](Cc1ccccc1)NC(=O)c1cnccn1)B(O)O [Bortezomib] + O=C(c1cc(Cc2n[nH]c(=O)c3ccccc23)ccc1F)N1CCN(C(=O)C2CC2)CC1 [Olaparib] (partner 8 µM)
Outline: as §1

## NCI-H650
[1]; first compound 0.08 µM
  relative viability: 0.288
[1]; first compound 0.253 µM
  relative viability: 0.321
[1]; first compound 0.8 µM
  relative viability: 0.339
[1]; first compound 2.53 µM
  relative viability: 0.294
[1]; first compound 8 µM
  relative viability: 0.177
Obatoclax + Pemetrexed; first compound 0.01 µM
  relative viability: 1.01
Obatoclax + Pemetrexed; first compound 0.03162 µM
  relative viability: 0.86
Obatoclax + Pemetrexed; first compound 0.3162 µM
  relative viability: 0.944
Obatoclax + Pemetrexed; first compound 1 µM
  relative viability: 0.443
[2]; first compound 0.08 µM
  relative viability: 1.26
[2]; first compound 0.253 µM
  relative viability: 1.02
[2]; first compound 0.8 µM
  relative viability: 1.29
[2]; first compound 2.53 µM
  relative viability: 0.736
[2]; first compound 8 µM
  relative viability: 0.187
Bortezomib + Olaparib; first compound 0.0002 µM
  relative viability: 0.372
Bortezomib + Olaparib; first compound 0.000632 µM
  relative viability: 0.435
Bortezomib + Olaparib; first compound 0.002 µM
  relative viability: 0.398
Bortezomib + Olaparib; first compound 0.006325 µM
  relative viability: 0.165
Bortezomib + Olaparib; first compound 0.02 µM
  relative viability: 0.102
